Like-named read-outs stand apart in the source and are kept apart here. One block for each compound: values may come before it.
Experiments:
NMRI mice = experiment: CP 55,940-induced hypothermia in NMRI mice; type: in vivo; conditions: po, CP 55,940 0.3 mg/kg i.v.; for Hypothermia in NMRI mice ID50 or minimum effective dose (MED), result in words: highest dose 30 mg/kg
Procedure: Effect of CB1 Receptor Antagonist/Inverse Agonist on CP 55,940-Induced Hypothermia in NMRI Mice
Male NMRI mice were used in this study and were obtained from Research Consulting Company Ltd (RCC) of Füllinsdorf (Switzerland). Mice, weighing 30-31 g were used in this study. Ambient temperature is approximately 20-21° C. and relative humidity 55-65%. A 12 hours light-dark cycle is maintained in the rooms with all tests being performed during the light phase. Access to tap water and food are ad libitum.
All measurements were made between 12:00 am and 5:00 pm. Mice were brought in this environment and habituated for at least two hours before the start of the experiment. They had always free access to food and water. For each dose, 8 mice were used. Rectal body temperature measurements were recorded by mean of a rectal probe (RET2 of Physitemp) and digital thermometer (Digi-sense n°8528-20 of Cole Parmer, Chicago USA). The probe was inserted about 3.5 cm in each mouse.
The body temperature was taken 15 min before administration of either Vehicle or CB1 receptor antagonist/inverse agonist. 30 or 90 min after i.p. or p.o. administration of this compound, respectively, rectal body temperature was recorded in order to evaluate any influence of the compound itself. The CB receptor agonist CP 55,940 (0.3 mg/kg) was immediately administered intravenously, then 20 min after i.v. administration of CP 55940, body temperature was again measured.

[1] = biological target: T1, human cannabis CB1 receptor (Homo sapiens, UniProt P21554); experiment: CB1 receptor affinity, [3H]-CP-55,940 radioligand binding on HEK cell membranes
T1 construct: expressed in transfected cells; host or cells: human embryonic kidney (HEK) cells, Semliki Forest Virus system, membrane preparation
Procedure: The affinity of the compounds of the invention for cannabinoid CB1 receptors was determined using membrane preparations of human embryonic kidney (HEK) cells in which the human cannabis CB1 receptor is transiently transfected using the Semliki Forest Virus system in conjunction with [3H]-CP-55,940 as radioligand. After incubation of a freshly prepared cell membrane preparation with the [3H]-ligand, with or without addition of compounds of the invention, separation of bound and free ligand was performed by filtration over glassfiber filters. Radioactivity on the filter was measured by liquid scintillation counting.
The data is determined with the experimental conditions described in Devane et. al. Mol. Pharmacol. 34 (1988) 605-613.

[2] = tested on: obese Spague-Dawley rats fed a high fat diet; experiment: Body weight reduction in obese rats fed a high fat diet; type: in vivo; conditions: over 17 days
Text: In vivo efficacy in the hypothermia model translated into efficacy in a disease related model, namely body weight reduction in obese Spague-Dawley rats fed a high fat diet (in analogy to Vickers et al. Psychopharmacology 2003, 167, 103-11 for obese fa/fa rats).

[3] = doses of 10 and 20 mg daily; cited from earlier work
[4] = Table 1, read-out: IC50 (affinity for the CB1 receptor)
[5] = Table 2, read-out: CB1 receptor affinity IC50

T1 sequence (P21554 whole entry): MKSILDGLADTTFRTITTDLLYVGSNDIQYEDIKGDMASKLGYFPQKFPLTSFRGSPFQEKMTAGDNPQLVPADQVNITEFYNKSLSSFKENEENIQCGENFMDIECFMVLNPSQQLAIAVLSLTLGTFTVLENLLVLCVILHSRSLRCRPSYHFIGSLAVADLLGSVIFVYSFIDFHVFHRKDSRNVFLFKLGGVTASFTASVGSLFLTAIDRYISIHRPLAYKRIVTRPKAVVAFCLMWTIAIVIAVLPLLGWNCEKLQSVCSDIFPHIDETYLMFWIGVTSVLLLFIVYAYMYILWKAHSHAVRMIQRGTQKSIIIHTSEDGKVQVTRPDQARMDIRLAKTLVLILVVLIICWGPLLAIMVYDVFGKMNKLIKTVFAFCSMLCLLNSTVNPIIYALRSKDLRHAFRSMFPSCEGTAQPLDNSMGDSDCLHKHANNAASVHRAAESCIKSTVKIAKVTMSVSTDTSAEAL

IC50 [1, 4]: 0.005 µM
Compound: O=C(c1cc2c(cc1F)O[C@](c1ccccc1F)(c1ccc(Cl)cc1Cl)O2)N1CCOCC1 [R-(+)[2-(2,4-Dichloro-phenyl)-6-fluoro-2-(2-fluoro-phenyl)-benzo[1,3]dioxol-5-yl]-morpholin-4-yl-methanone]
Hypothermia in NMRI mice ID50 (NMRI mice): ID50: 4.0 mg/kg po

IC50 [1, 4]: 0.0025 µM
Compound: O=C(c1cc2c(cc1F)O[C@](c1ccc(Cl)cc1)(c1ccc(Cl)cc1Cl)O2)N1CCOCC1 [R-(−)-[2-(4-Chloro-phenyl)-2-(2,4-dichloro-phenyl)-6-fluoro-benzo[1,3]dioxol-5-yl]-morpholin-4-yl-methanone]
Hypothermia in NMRI mice ID50 (NMRI mice): ID50: 1.6 mg/kg po
BW reduction ([2]; once daily 3 mg/kg po): 9.7%

IC50 [1, 5]: 0.026 µM
Compound: O=C(c1cc2c(cc1F)OC(c1ccc(Cl)cc1)(c1ccc(Cl)cc1)O2)N1CCOCC1 [Meso-[2,2-Bis-(4-chloro-phenyl)-6-fluoro-benzo[1,3]dioxol-5-yl]-morpholin-4-yl-methanone, reference compound]
Hypothermia in NMRI mice ID50 or minimum effective dose (MED), result in words (NMRI mice): inactive at 30

Compound: O=C(c1cc2c(cc1F)O[C@@](c1ccc(Cl)cc1)(c1ccc(Cl)cc1Cl)O2)N1CCOCC1 [S-(+)[2-(4-Chloro-phenyl)-2-(2,4-dichloro-phenyl)-6-fluoro-benzo[1,3]dioxol-5-yl]-morpholin-4-yl-methanone]
Hypothermia in NMRI mice minimum effective dose (MED) (NMRI mice): MED: 10 mg/kg po
IC50 [1, 4]: 0.017 µM
IC50 [1, 5]: 0.017 µM

IC50 [1, 4]: 0.007 µM
Compound: O=C(c1cc2c(cc1F)O[C@](c1ccc(F)cc1)(c1ccc(Cl)cc1Cl)O2)N1CCOCC1 [R-(+)-[2-(2,4-Dichloro-phenyl)-2-(4-fluoro-phenyl)-6-fluoro-benzo[1,3]dioxol-5-yl]-morpholin-4-yl-methanone]

IC50 [1, 4]: 0.075 µM
Compound: O=C(c1cc2c(cc1F)O[C@@](c1ccc(F)cc1)(c1ccc(Cl)cc1Cl)O2)N1CCOCC1 [S-(−)[2-(2,4-Dichloro-phenyl)-2-(4-fluoro-phenyl)-6-fluoro-benzo[1,3]dioxol-5-yl]-morpholin-4-yl-methanone]

Compound: Cc1c(C(=O)NN2CCCCC2)nn(-c2ccc(Cl)cc2Cl)c1-c1ccc(Cl)cc1 [rimonabant, reference compound]
body weight compared to placebo [3]: significantly reduced body weight
BW reduction ([2]; once daily 10 mg/kg po): 6.6%

IC50 [1, 4]: 0.033 µM
Compound: O=C(c1cc2c(cc1F)O[C@@](c1ccccc1F)(c1ccc(Cl)cc1Cl)O2)N1CCOCC1 [S-(−)-[2-(2,4-dichloro-phenyl)-6-fluoro-2-(2-fluoro-phenyl)-benzo[1,3]dioxol-5-yl]-morpholin-4-yl-methanone]
Hypothermia in NMRI mice ID50 or minimum effective dose (MED), result in words (NMRI mice): inactive at 30

Source: US20100056513A1, “STEREOSPECIFICALLY SUBSTITUTED BENZO[1,3]DIOXOLYL DERIVATIVES” (priority 2005, published 2010)
